{"source": "patent US20180296503A1", "about": "(priority 2014, published 2018)", "key": {"[1]": {"tested_on": "rd10^+/+ mice", "experiment": "Cone density in PNA-stained retinal flat mounts of rd10+/+ mice at P50", "assay_type": "in vivo", "conditions": "for cone cell density compared to NAC-treated mice: P50, four quadrants"}, "[2]": {"tested_on": "rd10^+/+ mice", "experiment": "Scotopic, photopic and low background photopic electroretinograms (ERGs) in rd10+/+ mice given drug in drinking water", "assay_type": "in vivo", "conditions": "for mean peak scotopic ERG b-wave amplitude compared with controls: vs controls", "protocol": "Scotopic and photopic electroretinograms (ERGs) were recorded at P35. Scotopic, photopic and low background photopic ERGs were recorded at P50."}, "[3]": {"target": "glutamate cysteine ligase (GCL, EC 6.3.2.2)", "conditions": "nonallosteric competitive inhibition of GCL; cited from earlier work"}, "[4]": {"conditions": "humans; oral dose of 600 mg; cited from earlier work"}, "[5]": {"conditions": "oral formulations; cited from earlier work"}, "[6]": {"conditions": "same oral dose or substantially lower dose than NAC, rd10+/+ mice"}}}
{"smiles": "CC(=O)N[C@@H](CS)C(N)=O", "values": [{"measurement": "protecting cone cell survival (FIGS. 2A to 2M)", "setting": "[1]; 7 mg/ml NACA vs 7 mg/ml NAC", "value": "better effects"}, {"measurement": "protecting cone cell survival (FIGS. 4A to 4M)", "setting": "[1]; 7 mg/ml NACA vs 20 mg/ml NAC", "value": "better effect"}, {"measurement": "cone cell density compared to NAC-treated mice", "setting": "[1]; 7 mg/ml NACA vs 7 mg/ml NAC, p<0.0001 by ANOVA with Dunnett's correction", "value": "significantly greater in 3 of 4 quadrants"}, {"measurement": "cone cell density compared to NAC-treated mice", "setting": "[1]; 7 mg/ml NACA vs 20 mg/ml NAC", "value": "significantly greater in 2 of 4 quadrants"}, {"measurement": "preservation of cone survival compared with NAC", "setting": "[1]; [6]", "value": "significantly greater preservation"}, {"measurement": "protecting retinal function (FIGS. 1A to 1E)", "setting": "[2]; 7 mg/ml NACA vs 7 mg/ml NAC", "value": "better effects"}, {"measurement": "protecting retinal function (FIGS. 3A to 3E)", "setting": "[2]; 7 mg/ml NACA vs 20 mg/ml NAC", "value": "better effects"}, {"measurement": "mean peak scotopic ERG b-wave amplitude compared with 20 mg/ml NAC", "setting": "[2]; P35, 7 mg/ml NACA vs 20 mg/ml NAC", "value": "similar"}, {"measurement": "mean peak photopic b-wave amplitude, higher than in NAC-treated mice", "setting": "[2]; P35, 7 mg/ml NACA vs 20 mg/ml NAC, p=0.024", "value": 41, "unit": "%"}, {"measurement": "mean scotopic b-wave amplitudes compared with NAC-treated mice", "setting": "[2]; P50, 7 mg/ml NACA vs 20 mg/ml NAC, at 10 of 11 stimulus intensities", "value": "significantly greater"}, {"measurement": "mean photopic ERG b-wave amplitude, higher than in NAC-treated mice", "setting": "[2]; P50, 7 mg/ml NACA vs 20 mg/ml NAC, at all 3 stimulus intensities, p=0.001", "value": 50, "unit": "%"}, {"measurement": "mean peak scotopic ERG b-wave amplitude compared with controls", "setting": "[2]; P50, 7 mg/ml NACA", "value": "sustained higher amplitudes"}, {"measurement": "preservation of cone cell function compared with NAC", "setting": "[2]; [6]", "value": "significantly greater preservation"}]}
{"smiles": "N[C@@H](CCC(=O)N[C@@H](CS)C(=O)NCC(=O)O)C(=O)O", "note": "[GSH, c-L-glutamyl-L-cysteinyl-glycine]", "values": [{"measurement": "Ki", "setting": "[3]", "value": 2300, "unit": "µM"}]}
{"smiles": "CC(=O)N[C@@H](CS)C(=O)O", "note": "[NAC, N-acetyl-L-cysteine]", "values": [{"measurement": "time after administration at which no NAC is detectable", "setting": "[4]", "value": "10 to 12", "unit": "h"}, {"measurement": "systemic bioavailability", "setting": "[5]", "value": "< 10", "unit": "%"}, {"measurement": "mean peak scotopic ERG b-wave amplitude compared with controls", "setting": "[2]; P50, 20 mg/ml NAC", "value": "sustained higher amplitudes"}]}
